What was measured:
P-selectin = molecular target: T1, P-selectin (Homo sapiens, UniProt P16109); experiment: In vitro inhibitory activity of compound was determined against Selectin P binding by ELISA assay
T1 sequence (P16109 whole entry): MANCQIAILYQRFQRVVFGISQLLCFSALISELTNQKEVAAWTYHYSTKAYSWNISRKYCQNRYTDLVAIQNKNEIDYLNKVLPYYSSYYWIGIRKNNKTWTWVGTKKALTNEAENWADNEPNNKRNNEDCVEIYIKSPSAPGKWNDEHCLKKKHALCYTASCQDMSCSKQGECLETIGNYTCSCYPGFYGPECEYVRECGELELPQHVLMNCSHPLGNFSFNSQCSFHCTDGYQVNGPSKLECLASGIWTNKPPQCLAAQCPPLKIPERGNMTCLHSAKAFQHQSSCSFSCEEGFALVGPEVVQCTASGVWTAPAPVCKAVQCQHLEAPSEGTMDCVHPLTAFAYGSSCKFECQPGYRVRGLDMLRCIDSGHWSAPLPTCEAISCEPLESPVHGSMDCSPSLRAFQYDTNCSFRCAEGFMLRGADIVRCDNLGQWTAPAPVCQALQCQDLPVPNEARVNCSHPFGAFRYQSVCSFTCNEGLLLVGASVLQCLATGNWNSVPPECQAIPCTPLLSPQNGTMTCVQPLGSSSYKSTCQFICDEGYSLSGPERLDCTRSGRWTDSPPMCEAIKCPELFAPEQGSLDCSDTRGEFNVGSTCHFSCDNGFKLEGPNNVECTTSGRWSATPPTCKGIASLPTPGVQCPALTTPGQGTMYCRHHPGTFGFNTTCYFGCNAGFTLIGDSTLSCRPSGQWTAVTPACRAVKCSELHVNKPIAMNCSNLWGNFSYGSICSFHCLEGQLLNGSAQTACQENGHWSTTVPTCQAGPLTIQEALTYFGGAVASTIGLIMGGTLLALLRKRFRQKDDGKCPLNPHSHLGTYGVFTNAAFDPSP

L-selectin = molecular target: T2, L-selectin (Homo sapiens, UniProt P14151); experiment: In vitro inhibitory activity of compound was determined against Selectin L binding by ELISA assay
T2 sequence (P14151 whole entry): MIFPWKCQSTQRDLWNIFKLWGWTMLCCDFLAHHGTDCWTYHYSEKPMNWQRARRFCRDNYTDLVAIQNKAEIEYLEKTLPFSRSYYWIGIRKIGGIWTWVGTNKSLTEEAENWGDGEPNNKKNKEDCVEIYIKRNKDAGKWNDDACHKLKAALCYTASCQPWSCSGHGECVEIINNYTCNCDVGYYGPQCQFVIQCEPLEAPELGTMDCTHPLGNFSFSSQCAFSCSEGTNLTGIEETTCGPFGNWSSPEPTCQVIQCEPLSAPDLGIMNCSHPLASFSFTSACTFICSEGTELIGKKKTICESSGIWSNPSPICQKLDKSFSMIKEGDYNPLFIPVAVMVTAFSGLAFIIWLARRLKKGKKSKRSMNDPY

E-selectin = molecular target: T3, E-selectin (Homo sapiens, UniProt P16581); experiment: In vitro inhibitory activity of compound was determined against Selectin E binding by ELISA assay
T3 sequence (P16581 whole entry): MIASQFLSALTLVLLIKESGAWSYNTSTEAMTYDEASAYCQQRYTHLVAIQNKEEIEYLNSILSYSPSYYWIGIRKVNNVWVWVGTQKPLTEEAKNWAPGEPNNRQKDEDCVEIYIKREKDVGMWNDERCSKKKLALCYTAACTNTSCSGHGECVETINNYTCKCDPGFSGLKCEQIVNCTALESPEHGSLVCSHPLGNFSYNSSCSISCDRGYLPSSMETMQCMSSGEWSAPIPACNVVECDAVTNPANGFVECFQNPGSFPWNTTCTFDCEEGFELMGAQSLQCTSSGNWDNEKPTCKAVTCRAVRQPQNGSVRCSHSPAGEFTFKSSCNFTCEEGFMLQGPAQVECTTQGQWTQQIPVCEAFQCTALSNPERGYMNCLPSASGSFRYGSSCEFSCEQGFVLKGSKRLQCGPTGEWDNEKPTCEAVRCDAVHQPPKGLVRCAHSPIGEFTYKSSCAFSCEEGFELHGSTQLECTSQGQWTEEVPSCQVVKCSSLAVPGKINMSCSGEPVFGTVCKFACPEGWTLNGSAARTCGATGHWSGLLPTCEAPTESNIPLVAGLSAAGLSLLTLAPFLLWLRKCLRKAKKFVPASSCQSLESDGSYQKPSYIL

SMILES	IC50 (P-selectin)	IC50 (L-selectin)	IC50 (E-selectin)
CC(=O)N[C@H]1[C@H]([C@H](O)[C@H](O)CO)O[C@@](O[C@H]2[C@@H](O)[C@@H](CO)O[C@@H](O[C@@H]([C@H](O[C@@H]3O[C@@H](C)[C@@H](O)[C@@H](O)[C@@H]3O)[C@H](C=O)NC(C)=O)[C@H](O)CO)[C@@H]2O)(C(=O)O)C[C@@H]1O [SIALYL LEWIS X]	> 1000 µM	> 1000 µM	–
CCCCCCCCCCCCCCC(CCCCCCCCCCCCCC)C(=O)N[C@@H](CO[C@@H]1O[C@@H](CO)[C@H](O)[C@H](O)[C@H]1O)C(=O)N[C@H](CCC(=O)O)C(=O)NC	0.45 µM	4 µM	3.5 µM
CCCCCCCCCCCCCCC(CCCCCCCCCCCCCC)CN1CCCS[C@@H](CCC(=O)O)C(=O)N[C@H](CO[C@H]2O[C@H](CO)[C@@H](O)[C@@H](O)[C@@H]2O)C1=O	2.57 µM	2.34 µM	> 100 µM
